Assay results from ChEMBL document CHEMBL4665665, “4-Aryl Pyrrolidines as Novel Orally Efficacious Antimalarial Agents. Part 2: 2-Aryl-N-(4-arylpyrrolidin-3-yl)acetamides” (ACS Med Chem Lett, 2019).
Calls of active or inactive are those of the source. The rule behind the calls is not given here.

Assays:
Plasmodium falciparum [1] = assay: Antimalarial activity against CQ-sensitive Plasmodium falciparum 3D7 incubated for 72 hrs by SYBR Green-1 dye based fluorescence assay; type: functional, organism-based
hERG = assay: Selectivity ratio of IC50 for human ERG incubated for 2 hrs by fluorescence polarization assay to IC50 for CQ-sensitive Plasmodium falciparum 3D7 incubated for 72 hrs by SYBR Green-1 dye based fluorescence assay; type: toxicity; conditions: read-out: Ratio IC50
[2] = Plasma concentration in NIH mouse infected with Plasmodium chabaudi ASS at 10 mg/kg, po qd for 4 days starting from 4 hrs post-parasite inoculation and measured at 24 hrs post-dosing on day 4 by LC/MS analysis; type: ADME, organism-based; conditions: dose 10 mg/kg/day, time 4 day
[3] = Apparent volume of distribution in KM mouse at 2 mg/kg, iv administered as cassette dosing measured up to 24 hrs by LC/MS analysis; type: ADME, organism-based; conditions: in vivo, read-out: Vz
[4] = molecular target: Plasmepsin II (Plasmodium falciparum) (UniProt P46925); assay: Inhibition of Plasmodium falciparum plasmepsin 2 using PM-2 peptide substrate incubated for 60 mis by fluorescence based assay; conditions: time 60.0 min
Plasmodium chabaudi [5] = assay: Antimalarial activity against Plasmodium chabaudi ASS infected in NIH mouse assessed as inhibition of parasitemia at 10 mg/kg, po qd for 4 days starting from 4 hrs post-parasite inoculation and measured at 24 hrs after last-drug treatment by Peter's 4-day suppressive test relative to control; type: functional; conditions: 96 h
[6] = Plasma concentration in NIH mouse infected with Plasmodium chabaudi ASS at 10 mg/kg, po qd for 4 days starting from 4 hrs post-parasite inoculation and measured at 1 hr post-dosing on day 4 by LC/MS analysis; type: ADME, organism-based; conditions: dose 10 mg/kg/day, time 4 day
[7] = Ratio of IC50 for antimalarial activity against CQ-sensitive Plasmodium falciparum 3D7 incubated for 72 hrs by SYBR Green-1 dye based fluorescence assay to Plasma concentration in NIH mouse infected with Plasmodium chabaudi ASS at 10 mg/kg, po qd for 4 days starting from 4 hrs post-parasite inoculation and measured at 24 hrs post-dosing on day 4 by LC/MS analysis
Cytochrome P450 3A4 = Cytochrome P450 3A4 (Homo sapiens, UniProt P08684); assay: Inhibition of recombinant human CYP3A4 expressed in baculovirus infected insect cells using midazolam as substrate incubated for 30 mins in presence of NADPH-regenerating system by fluorescence based assay; type: ADME
HepG2 = assay: Cytotoxicity against human HepG2 cells assessed as cell viability at 5 uM incubated for 72 hrs by PrestoBlue cell viability reagent based assay; conditions: hepg2, 72 h
Cytochrome P450 2C19 = Cytochrome P450 2C19 (Homo sapiens, UniProt P33261); assay: Inhibition of recombinant human CYP2C19 expressed in baculovirus infected insect cells using s-mephenytoin as substrate incubated for 30 mins in presence of NADPH-regenerating system by fluorescence based assay; type: ADME
[8] = molecular target: Beta-secretase 1 (Homo sapiens) (UniProt P56817); assay: Inhibition of recombinant human BACE1 using Mca-SEVNLDAEFRK(Dnp)RR-NH2 fluorogenic peptide as substrate incubated for 60 mis by fluorescence based assay; conditions: time 60.0 min
[9] = molecular target: Voltage-gated inwardly rectifying potassium channel KCNH2 (Homo sapiens, UniProt Q12809); assay: Displacement of Tracer Red from human ERG incubated for 2 hrs by fluorescence polarization assay
[10] = Plasma concentration in NIH mouse infected with Plasmodium chabaudi ASS at 10 mg/kg, po qd for 4 days starting from 4 hrs post-parasite inoculation and measured at 6 hrs post-dosing on day 4 by LC/MS analysis; type: ADME, organism-based; conditions: dose 10 mg/kg/day, time 4 day
[11] = Half life in KM mouse at 2 mg/kg, iv administered as cassette dosing measured up to 24 hrs by LC/MS analysis; type: ADME, organism-based; conditions: in vivo
Plasmodium falciparum [12] = assay: Inhibition of Plasmodium falciparum plasmepsin 4 using PM-2 peptide substrate incubated for 60 mis by fluorescence based assay; conditions: time 60.0 min
Plasmodium falciparum [13] = assay: Antimalarial activity against multidrug resistant Plasmodium falciparum Dd2 incubated for 72 hrs by SYBR Green-1 dye based fluorescence assay; type: functional, organism-based; conditions: Dd2, 72 h
[14] = Apparent clearance in KM mouse at 2 mg/kg, iv administered as cassette dosing measured up to 24 hrs by LC/MS analysis; type: ADME, organism-based; conditions: in vivo
Cytochrome P450 1A2 = molecular target: T1, Cytochrome P450 1A2 (Homo sapiens, UniProt P05177); assay: Inhibition of recombinant human CYP1A2 expressed in baculovirus infected insect cells using phenacetin as substrate incubated for 30 mins in presence of NADPH-regenerating system by fluorescence based assay; type: ADME
T1 sequence (P05177 whole entry): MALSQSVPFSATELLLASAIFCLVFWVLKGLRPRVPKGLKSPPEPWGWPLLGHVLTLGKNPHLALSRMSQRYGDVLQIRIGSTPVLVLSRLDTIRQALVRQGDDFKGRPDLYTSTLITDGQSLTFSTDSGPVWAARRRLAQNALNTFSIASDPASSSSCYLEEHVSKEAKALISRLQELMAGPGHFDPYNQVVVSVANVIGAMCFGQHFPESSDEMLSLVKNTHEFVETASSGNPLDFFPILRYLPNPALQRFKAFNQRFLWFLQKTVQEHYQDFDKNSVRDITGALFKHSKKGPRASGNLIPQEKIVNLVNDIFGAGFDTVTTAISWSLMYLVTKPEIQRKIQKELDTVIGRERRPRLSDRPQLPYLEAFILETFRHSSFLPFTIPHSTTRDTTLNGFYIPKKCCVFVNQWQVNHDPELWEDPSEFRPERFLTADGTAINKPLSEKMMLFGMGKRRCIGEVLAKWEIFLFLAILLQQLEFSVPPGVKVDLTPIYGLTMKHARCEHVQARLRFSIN

Cytochrome P450 2D6 = Cytochrome P450 2D6 (Homo sapiens, UniProt P10635); assay: Inhibition of recombinant human CYP2D6 expressed in baculovirus infected insect cells using dextromethorphan as substrate incubated for 30 mins in presence of NADPH-regenerating system by fluorescence based assay; type: ADME
Cytochrome P450 2C9 = Cytochrome P450 2C9 (Homo sapiens, UniProt P11712); assay: Inhibition of recombinant human CYP2C9 expressed in baculovirus infected insect cells using tolbutamide as substrate incubated for 30 mins in presence of NADPH-regenerating system by fluorescence based assay; type: ADME
Plasmodium chabaudi [15] = assay: Antimalarial activity against Plasmodium chabaudi ASS infected in NIH mouse assessed as inhibition of parasitemia at 30 mg/kg, po qd for 4 days starting from 4 hrs post-parasite inoculation and measured at 24 hrs after last-drug treatment by Peter's 4-day suppressive test relative to control; type: functional; conditions: 96 h
[16] = Plasmodium falciparum, 3D7, 72 h

Voltage-gated inwardly rectifying potassium channel KCNH2, sequence (Q12809 whole entry): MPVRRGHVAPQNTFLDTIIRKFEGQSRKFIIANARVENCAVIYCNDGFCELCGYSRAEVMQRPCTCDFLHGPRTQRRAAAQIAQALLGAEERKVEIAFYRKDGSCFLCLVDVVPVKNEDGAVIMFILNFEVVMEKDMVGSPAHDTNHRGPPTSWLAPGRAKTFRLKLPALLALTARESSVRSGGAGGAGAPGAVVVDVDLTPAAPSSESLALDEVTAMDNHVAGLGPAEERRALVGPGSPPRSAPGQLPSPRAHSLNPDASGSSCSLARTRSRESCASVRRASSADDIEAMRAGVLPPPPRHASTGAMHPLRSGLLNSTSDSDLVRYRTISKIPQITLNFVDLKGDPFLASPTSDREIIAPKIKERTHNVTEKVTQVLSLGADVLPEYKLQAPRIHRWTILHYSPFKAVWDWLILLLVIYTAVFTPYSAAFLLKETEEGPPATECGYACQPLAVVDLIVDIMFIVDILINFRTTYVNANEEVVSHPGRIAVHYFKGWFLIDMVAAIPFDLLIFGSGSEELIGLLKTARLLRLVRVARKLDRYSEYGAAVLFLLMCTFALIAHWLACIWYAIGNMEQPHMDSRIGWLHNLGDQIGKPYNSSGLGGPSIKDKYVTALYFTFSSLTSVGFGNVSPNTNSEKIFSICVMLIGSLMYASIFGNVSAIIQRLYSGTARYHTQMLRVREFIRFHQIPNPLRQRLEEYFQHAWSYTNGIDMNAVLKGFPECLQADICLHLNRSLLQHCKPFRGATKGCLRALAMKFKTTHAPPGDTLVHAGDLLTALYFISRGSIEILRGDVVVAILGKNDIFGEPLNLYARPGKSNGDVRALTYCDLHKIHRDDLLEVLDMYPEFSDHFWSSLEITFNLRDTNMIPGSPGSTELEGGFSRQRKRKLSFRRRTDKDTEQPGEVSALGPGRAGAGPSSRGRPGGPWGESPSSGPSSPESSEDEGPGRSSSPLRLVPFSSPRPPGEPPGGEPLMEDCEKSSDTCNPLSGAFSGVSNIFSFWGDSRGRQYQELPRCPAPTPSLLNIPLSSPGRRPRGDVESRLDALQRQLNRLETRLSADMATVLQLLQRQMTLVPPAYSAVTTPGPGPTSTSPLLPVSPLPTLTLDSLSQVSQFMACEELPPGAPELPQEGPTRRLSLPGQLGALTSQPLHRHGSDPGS
Cytochrome P450 3A4, sequence (P08684 whole entry): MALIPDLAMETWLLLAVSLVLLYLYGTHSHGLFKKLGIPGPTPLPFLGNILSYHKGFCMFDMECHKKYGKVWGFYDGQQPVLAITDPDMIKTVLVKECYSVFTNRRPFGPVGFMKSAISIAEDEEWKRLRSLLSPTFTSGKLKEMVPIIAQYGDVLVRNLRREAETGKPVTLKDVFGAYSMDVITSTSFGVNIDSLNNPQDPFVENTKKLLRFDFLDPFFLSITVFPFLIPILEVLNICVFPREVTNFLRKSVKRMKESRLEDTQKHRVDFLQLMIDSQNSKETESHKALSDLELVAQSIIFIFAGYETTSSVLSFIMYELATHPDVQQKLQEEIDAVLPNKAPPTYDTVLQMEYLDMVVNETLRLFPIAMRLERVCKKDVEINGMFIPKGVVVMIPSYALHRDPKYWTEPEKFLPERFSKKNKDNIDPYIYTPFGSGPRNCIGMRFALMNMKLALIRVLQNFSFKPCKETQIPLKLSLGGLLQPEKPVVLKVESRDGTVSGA
Beta-secretase 1 (Homo sapiens), sequence (P56817 whole entry): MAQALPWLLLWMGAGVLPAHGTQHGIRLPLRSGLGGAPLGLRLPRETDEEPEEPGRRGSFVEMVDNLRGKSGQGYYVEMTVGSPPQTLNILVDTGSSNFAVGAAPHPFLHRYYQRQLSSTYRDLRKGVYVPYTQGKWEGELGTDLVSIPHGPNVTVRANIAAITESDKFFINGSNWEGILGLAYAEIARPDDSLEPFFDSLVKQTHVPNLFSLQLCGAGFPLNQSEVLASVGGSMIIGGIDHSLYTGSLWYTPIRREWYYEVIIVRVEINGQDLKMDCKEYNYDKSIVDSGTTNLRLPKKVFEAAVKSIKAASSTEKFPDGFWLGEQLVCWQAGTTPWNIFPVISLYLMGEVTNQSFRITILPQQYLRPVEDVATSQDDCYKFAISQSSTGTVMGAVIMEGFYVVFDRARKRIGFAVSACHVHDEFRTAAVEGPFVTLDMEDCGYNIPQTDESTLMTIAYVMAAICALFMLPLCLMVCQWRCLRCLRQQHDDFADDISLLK
Plasmepsin II (Plasmodium falciparum), sequence (P46925 125-453 limits assumed): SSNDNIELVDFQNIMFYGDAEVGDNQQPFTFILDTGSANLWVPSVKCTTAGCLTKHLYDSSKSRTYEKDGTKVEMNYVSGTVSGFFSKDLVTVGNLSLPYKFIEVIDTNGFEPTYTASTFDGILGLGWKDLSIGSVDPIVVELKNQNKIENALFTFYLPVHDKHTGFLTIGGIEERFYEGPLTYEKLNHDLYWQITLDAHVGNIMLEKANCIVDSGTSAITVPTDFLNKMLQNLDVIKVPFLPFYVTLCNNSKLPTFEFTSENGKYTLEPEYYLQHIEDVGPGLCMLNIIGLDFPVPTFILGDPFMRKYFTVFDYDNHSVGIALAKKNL
Cytochrome P450 2C9, sequence (P11712 whole entry): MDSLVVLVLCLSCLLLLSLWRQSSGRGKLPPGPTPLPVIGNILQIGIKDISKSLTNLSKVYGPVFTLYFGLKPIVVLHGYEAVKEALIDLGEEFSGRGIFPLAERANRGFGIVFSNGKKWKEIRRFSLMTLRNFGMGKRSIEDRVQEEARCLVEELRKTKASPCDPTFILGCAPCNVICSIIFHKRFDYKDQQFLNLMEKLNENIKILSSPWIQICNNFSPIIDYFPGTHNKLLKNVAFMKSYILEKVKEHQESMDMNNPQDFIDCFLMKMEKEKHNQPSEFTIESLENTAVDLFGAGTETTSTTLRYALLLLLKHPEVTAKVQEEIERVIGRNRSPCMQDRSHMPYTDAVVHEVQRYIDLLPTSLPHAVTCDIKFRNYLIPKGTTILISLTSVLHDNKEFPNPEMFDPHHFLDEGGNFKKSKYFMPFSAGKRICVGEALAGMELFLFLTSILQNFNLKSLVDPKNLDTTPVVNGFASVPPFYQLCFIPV
Cytochrome P450 2C19, sequence (P33261 whole entry): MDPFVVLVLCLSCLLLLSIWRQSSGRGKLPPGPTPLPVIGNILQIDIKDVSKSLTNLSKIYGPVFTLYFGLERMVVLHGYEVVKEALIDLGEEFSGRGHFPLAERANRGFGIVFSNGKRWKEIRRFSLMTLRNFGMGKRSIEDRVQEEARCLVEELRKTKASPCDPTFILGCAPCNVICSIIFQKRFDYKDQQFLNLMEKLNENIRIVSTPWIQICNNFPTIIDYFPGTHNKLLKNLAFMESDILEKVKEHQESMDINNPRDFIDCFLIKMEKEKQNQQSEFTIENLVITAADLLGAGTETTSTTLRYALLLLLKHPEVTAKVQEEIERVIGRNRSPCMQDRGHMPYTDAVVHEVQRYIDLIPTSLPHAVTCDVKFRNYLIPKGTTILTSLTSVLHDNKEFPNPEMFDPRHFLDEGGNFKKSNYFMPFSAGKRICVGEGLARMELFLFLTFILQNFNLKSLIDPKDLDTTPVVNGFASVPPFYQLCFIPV
Cytochrome P450 2D6, sequence (P10635 whole entry): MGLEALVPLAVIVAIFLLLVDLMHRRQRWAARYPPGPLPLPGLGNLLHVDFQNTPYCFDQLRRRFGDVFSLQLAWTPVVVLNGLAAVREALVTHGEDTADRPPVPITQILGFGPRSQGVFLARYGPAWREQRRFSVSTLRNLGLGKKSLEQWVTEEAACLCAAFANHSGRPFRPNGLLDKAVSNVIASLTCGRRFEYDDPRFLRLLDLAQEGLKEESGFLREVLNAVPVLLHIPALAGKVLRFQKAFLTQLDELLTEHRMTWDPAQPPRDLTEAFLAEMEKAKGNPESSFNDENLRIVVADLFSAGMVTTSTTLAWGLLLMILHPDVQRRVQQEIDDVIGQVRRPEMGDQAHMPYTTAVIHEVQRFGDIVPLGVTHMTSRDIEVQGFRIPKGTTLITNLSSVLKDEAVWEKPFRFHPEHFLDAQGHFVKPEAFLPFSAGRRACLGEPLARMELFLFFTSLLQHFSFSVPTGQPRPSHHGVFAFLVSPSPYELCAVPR

| IC50 (Plasmodium falciparum [1]; [16]) | SMILES | other results |
| --- | --- | --- |
| 0.19 µM | CN(C)c1ccc(CNC(=O)[C@H]2CNC[C@@H]2c2ccc(C(F)(F)F)cc2)cc1 (racemic) |  |
| 0.23 µM | CN(C)c1cccc(CC(=O)N[C@H]2CNC[C@@H]2c2ccc(C(F)(F)F)cc2)c1 (racemic) |  |
| 0.12 µM | CN(C)c1ccc(CC(=O)N[C@@H]2CNC[C@H]2c2ccc(C(F)(F)F)c(Cl)c2)cc1 |  |
| 0.25 µM | CN(C)c1ccc(CNC(=O)[C@H]2CNC[C@@H]2c2ccc(C(F)(F)F)nc2)cc1 (racemic) |  |
| 0.2 µM | CN(C)c1ccc(CC(=O)N(C)[C@@H]2CNC[C@H]2c2ccc(C(F)(F)F)cc2)cc1 |  |
| 0.35 µM | COc1ccc(CC(=O)N[C@H]2CNC[C@@H]2c2ccc(C(F)(F)F)cc2)cc1 (racemic) |  |
| 0.15 µM | CN(C)c1ccc(CC(=O)N[C@@H]2CNC[C@H]2c2cc3ccccc3s2)cc1 |  |
| 4.6 µM | CN(C)c1ccc(CC(=O)N[C@@H]2CNC[C@H]2c2ccc(-c3ccccc3)cc2)cc1 |  |
| 0.14 µM | CN(C)c1ccc(CC(=O)N[C@@H]2CNC[C@H]2c2cc3ccccc3o2)cc1 |  |
| 2.2 µM | COc1ccc(CC(=O)N[C@H]2CNC[C@@H]2c2ccc(C(F)(F)F)cc2)cn1 (racemic) |  |
| 0.14 µM | CN(C)c1ccc(CC(=O)N[C@@H]2CNC[C@H]2c2ccc(Br)cc2)cc1 |  |
| 2.9 µM | Nc1ccc(CC(=O)N[C@H]2CNC[C@@H]2c2ccc(C(F)(F)F)cc2)cc1 (racemic) |  |
| 0.063 µM | CN(C)c1ccc(CC(=O)N[C@@H]2CNC[C@H]2c2ccc(C(F)(F)C(F)(F)F)nc2)cc1 |  |
| 2 µM | O=C(Cc1ccccc1)N[C@H]1CNC[C@@H]1c1ccc(C(F)(F)F)cc1 (racemic) |  |
| 0.37 µM | Cc1cccc(CC(=O)N[C@H]2CNC[C@@H]2c2ccc(C(F)(F)F)cc2)c1 (racemic) |  |
| 0.27 µM | CN(C)c1ccc(CC(=O)N[C@@H]2CNC[C@H]2c2cc3cc(F)ccc3o2)cc1 |  |
| 0.6 µM | CC(C)c1ccc(CC(=O)N[C@H]2CNC[C@@H]2c2ccc(C(F)(F)F)cc2)cc1 (racemic) |  |
| 0.76 µM | COc1cccc(CC(=O)N[C@H]2CNC[C@@H]2c2ccc(C(F)(F)F)cc2)c1 (racemic) |  |
| 1 µM | CN(C)c1ccc(CC(=O)N[C@@H]2CNC[C@H]2c2cc3cc(Cl)ccc3o2)cc1 |  |
| 0.14 µM | CN(C)c1ccc(CC(=O)N[C@@H]2CNC[C@H]2c2ccc(C(F)(F)C(F)(F)F)cc2)cc1 |  |
| 0.23 µM | Cc1ccc(CC(=O)N[C@H]2CNC[C@@H]2c2ccc(C(F)(F)F)cc2)cc1 (racemic) |  |

The remaining lines, values behind:

| SMILES | IC50 (Plasmodium falciparum [1]; [16]) | other results |
| --- | --- | --- |
| CN(C)c1ccc(CC(=O)N[C@@H]2CNC[C@H]2c2ccc(C(C)(C)C)cc2)cc1 | 0.12 µM |  |
| CN(C)c1ccc(CC(=O)N[C@H]2CNC[C@@H]2c2ccc(C(F)(F)F)cc2)cc1 (racemic) |  | IC50 (Plasmodium falciparum [1]): 0.096 µM |
| Cc1ccc(CC(=O)N[C@H]2CNC[C@@H]2c2ccc(C(F)(F)F)cc2)cn1 (racemic) | 3.7 µM |  |
| CN(C)c1ccc(CCC(=O)N[C@H]2CNC[C@@H]2c2ccc(C(F)(F)F)cc2)cc1 (racemic) | 1.4 µM |  |
| CN(C)c1ccc(CC(=O)N[C@@H]2CNC[C@H]2c2ccc(C(F)(F)F)cc2)cc1 | 0.12 µM | selectivity ratio at 2 h (hERG): 49; concentration at 96 h [2]: 0.0074 µM; Vd [3]: 4.2 L/kg; inhibition [4]: inactive; inhibition in vivo at 10 mg/kg/day (Plasmodium chabaudi [5]): 61.2%; concentration at 96 h [6]: 0.255 µM; Ratio [7]: 6; IC50 (Cytochrome P450 3A4): 0.871 µM; Activity (HepG2): Non-Toxic; IC50 (Cytochrome P450 2C19): 45.4 µM; inhibition [8]: inactive; IC50 [9]: 5.91 µM; concentration at 96 h [10]: 0.181 µM; half-life [11]: 5.6 h; inhibition (Plasmodium falciparum [12]): inactive; IC50 (Plasmodium falciparum [13]): 0.078 µM; clearance [14]: 0.474 L/h/kg; IC50 (Cytochrome P450 1A2): > 100 µM; IC50 (Cytochrome P450 2D6): 24.5 µM; IC50 (Cytochrome P450 2C9): 98.1 µM |
| CN(C)c1ccc(CC(=O)N[C@@H]2CNC[C@H]2c2ccc(C(C)(F)F)nc2)cc1 | 0.06 µM |  |
| CN1C[C@@H](N(C)C(=O)Cc2ccc(N(C)C)cc2)[C@H](c2ccc(C(F)(F)F)nc2)C1 (racemic) | 1.4 µM |  |
| CN(C)c1ccc(CC(=O)N[C@H]2CNC[C@@H]2c2ccc(C(C)(F)F)cc2)cc1 | 0.44 µM |  |
| CN(C)c1ccc(CC(=O)N[C@@H]2CNC[C@H]2c2cccc(S(F)(F)(F)(F)F)c2)cc1 | 0.059 µM |  |
| COc1ccc(CC(=O)N[C@H]2CNC[C@@H]2c2ccc(C(F)(F)F)cc2)nc1 (racemic) | 3.6 µM |  |
| CN(C)c1ccc(CC(=O)N[C@H]2CNC[C@@H]2c2ccc(C(F)(F)F)cc2)cc1 |  | IC50 (Plasmodium falciparum [1]): 0.86 µM |
| C[C@@H]1CC[C@H]2[C@@H](C)C(=O)O[C@@H]3O[C@@]4(C)CC[C@@H]1[C@]32OO4 [ARTEMISININ] | 0.033 µM |  |
| CN(C)c1ccc(CC(=O)N[C@H]2CNC[C@@H]2c2ccc(S(F)(F)(F)(F)F)cc2)cc1 | 1.2 µM |  |
| CCN(CC)CCCC(C)Nc1ccnc2cc(Cl)ccc12 (stereo unspecified) [CHLOROQUINE] |  | concentration at 96 h [2]: 0.0686 µM; inhibition in vivo at 10 mg/kg/day (Plasmodium chabaudi [5]): 99.9%; concentration at 96 h [6]: 0.0807 µM; concentration at 96 h [10]: 0.0834 µM |
| Cc1ccc(CC(=O)N[C@H]2CNC[C@@H]2c2ccc(C(F)(F)F)cc2)nc1 (racemic) | 1.6 µM |  |
| CN(C)c1ccc(CC(=O)N[C@H]2CNC[C@@H]2c2ccc(C(F)(F)F)nc2)cc1 (racemic) | 0.21 µM |  |
| C[C@H](NC(=O)[C@H]1CNC[C@@H]1c1ccc(C(F)(F)F)cc1)c1ccc(N(C)C)cc1 |  | inhibition in vivo at 30 mg/kg/day (Plasmodium chabaudi [15]): 92.2% |
